Source: patent US8168232B2, “Formulations and methods of using nitric oxide mimetics in cancer treatment” (priority 2000, dated 2012)

Tests used:
PAI-1 mRNA = assay: Northern blot of PAI-1 mRNA in breast cancer cells; type: cell-based, human; conditions: SNP 10^−12 M, GTN 10^−11 M
Procedure: Following incubation, the total cellular RNA from the cells was isolated using the Gentra […] RNA Isolation Kit. The isolated RNA was subsequently separated by electrophoresis, and transferred to charged nylon membranes. The membranes were prehybridized at 42° C. for approximately 2 hours in a solution containing 50% formamide, 5×Denhardt's solution, 0.5% sodium dodecyl sulfate (SDS), 6×SSC (1×SSC=0.15 M NaCl, 15 mM sodium citrate, pH 7.0) and 100 μg/mL denatured salmon sperm DNA. They were then hybridized with a [^32P]-dCTP-labeled cDNA probe (uPAR or PAI-1) for approximately 24 hours at 42° C. in a solution composed of 6×SSC, 0.5% SDS, 100 μg/mL denatured salmon sperm DNA and 50% formamide, and containing a cDNA probe (uPAR or PAI-1) which was labeled with [^32P]-dCTP using a Pharmacia Oligolabelling kit. Following serial washes, the membrane was used to expose Dupont Reflection NEF film. After 1-4 days, the film was developed and analyzed. To correct for differences in the amount of RNA loaded in each sample, 28S rRNA was used.

[1] = system: prostate specific antigen (PSA); assay: PSA levels in prostate cancer patients on low dose transdermal GTN; type: in vivo, human
Procedure: Patients with prostatic adenocarcinoma were selected for this study because the progression of this type of cancer correlates well with the plasma levels of prostate-specific antigen (PSA). Thus, the outcome of low dose NO mimetic therapy can be easily assessed by measuring PSA levels. […] Plasma PSA levels were measured via a commercially available immunoassay kit such as Immuno 1 (Bayer Corporation).
Methods: Patients with a previous history of prostatectomy that have experienced biochemical failure as per the ASTRO criteria (three successive rises in PSA), PSA<10 (units), stable with sub-clinical disease were included in the study after signing an informed consent. All patients were placed on treatment with continuous low dose transdermal nitroglycerin (˜0.03 mg/hr, 24 hours a day). Subjects returned to the study centre for monthly PSA measurements. Subjects were withdrawn from the study if there was evidence of disease progression or other intervening medical events.

[2] = system: Bl6F10 metastatic melanoma cells; assay: In vivo experimental metastasis (lung colonization) model; parameters: species or system C57BL6 mice
Procedure: C57BL6 mice were injected i.v. (tail vein) with a bolus of 5×10^4-10^5 Bl6F10 metastatic melanoma cells. Immediately after the tail vein injection, mice were randomly divided into groups of 15 and mice in each group were placed in plexiglass chambers (approximately 3 L) which were continuously flushed with gas mixtures of 20% O2:balance N2 and 10% O2:balance N2, respectively. […] After a 24 hour exposure to an atmosphere of either 20% O2 or 10% O2, mice were removed from the chambers and placed in regular cages kept at room air. Thirteen days later, mice were sacrificed by cervical dislocation, and lungs were removed and fixed in Bouin's fixative (Sigma). Metastatic nodules (many of which appeared black due to the presence of melanin) on the surface of the lungs were counted visually under a dissecting microscope. Data were expressed as the number of lung nodules per 10^4 cells injected and were analyzed using statistical tests for non-parametric values.
Cells were then removed from plates with trypsin and 5×10^4 cells were injected i.v. (tail vein) into C57BL6 female mice. Some of the cells treated in vitro were plated onto tissue culture dishes to determine colony-forming ability using the protocol described below in the Section I.J.
Following harvesting from culture plates, 5×10^4 cells were injected intravenously (tail vein injections) into 5-7 week old C57Bl/6 female mice. Cells were also plated in tissue culture plates to determine the effect of culture conditions on in vitro colony forming ability. Fourteen days after intravenous inoculation, mice were sacrificed and their lungs were removed and fixed in Bouin's fixative. Both melanotic and amelanotic metastatic colonies were counted under a dissecting microscope. Data were expressed as the number of lung nodules per 5×10^4 viable cells injected (as determined by in vitro colony-forming ability) and were analyzed using statistical tests for non-parametric values.

PROXY-1 mRNA = PROXY-1 mRNA levels in HTR-8/SVneo invasive trophoblast cells; type: cell-based, human; conditions: 1% O2
Excerpt: PROXY-1 mRNA levels were very low in cells cultured in 20% O2.

O=[N+]([O-])OCC(CO[N+](=O)[O-])O[N+](=O)[O-] [GTN, glyceryl trinitrate]
PAI-1 mRNA levels vs untreated hypoxic cells (PAI-1 mRNA): significantly decreased | plasma PSA levels ([1]; GTN 0.033 mg/hour transdermal patches, recurrent prostatic adenocarcinoma, two patients, within two months): sharp decline | PSA velocity, first two treatment episodes ([1]; one patient, prostate intact, on anti-androgen therapy, GTN 0.03 mg/hour, about one month each): reduction of PSA velocity | PSA levels, third treatment episode ([1]; one patient, prostate intact, GTN 0.03 mg/hour, about one month): decrease in PSA levels | time to PSA decrease with combined radiation therapy ([1]; one patient, chronic transdermal GTN 0.03 mg/hour, radiation alone expected average twelve months): within three months | mean PSA velocity on therapy ([1]; transdermal ~0.03 mg/hr 24 hours a day, 5 or more months of therapy, decreased from 14%/month, post-prostatectomy biochemical failure): 5.4 %/month | drug related adverse events ([1]; transdermal ~0.03 mg/hr, 24 hours a day): No patients experienced drug related adverse events | decrease of hypoxia-stimulated lung nodule formation ([2]; cells pre-treated in vitro 12 h, 1% O2, 2×10^−11 M GTN): 85% | reduction of extent of metastasis ([2]; cells pre-treated in vitro 12 h, 20% oxygen, 2×10^−11 M GTN): more than 60% | attenuation of L-NMMA metastatic response ([2]; concomitant GTN (10^−10 M) and L-NMMA): 60% | PROXY-1 mRNA levels in hypoxic cells (PROXY-1 mRNA; 10^−7 M GTN): increased | PROXY-1 mRNA levels in hypoxic cells (PROXY-1 mRNA; 10^−11 M GTN): much lower
